{"source": "paper PMC5063900", "about": "“A phase 1 study of the safety, tolerability, pharmacokinetics, and pharmacodynamics of TAK-063, a selective PDE10A inhibitor” (Psychopharmacology, 2016)", "key": {"[1]": {"assay": "Food effect on pharmacokinetics, 100 mg fed vs fasting", "assay_type": "in vivo, human", "procedure": "Healthy Japanese and non-Japanese subjects between 18 and 55 years of age were recruited to participate in the study. Criteria for exclusion included prior treatment with any investigational compound within 30 days of the first TAK-063 dose, a positive test for drugs of abuse or nicotine, and an increased risk for suicide. Subjects were randomized into 1 of 6 dose cohorts (3, 10, 30, 100, 300, and 1000 mg), with each cohort containing 11 TAK-063 subjects (five Japanese, six non-Japanese) and three placebo subjects (one Japanese, two non-Japanese) receiving a single dose under fasting conditions. […] Plasma concentrations of TAK-063 and its metabolite M-I were subsequently measured by validated liquid chromatography-tandem mass spectrometry with a validated range of 0.5 to 1000 ng/mL for both analytes. The PK parameters analyzed for TAK-063 and its metabolite M-I in plasma and urine included area under the plasma concentration-time curve from time 0 to infinity (AUC (0-inf)), maximum observed plasma concentration (C max), time to reach C max (T max), terminal elimination half-life (T 1/2), oral clearance (CL/F), volume of distribution (Vz/F), and renal clearance (CLr). […] A power model was used to evaluate dose proportionality by race for fasted subjects; in the event of no observed race effect, dose proportionality was assessed for all subjects. […]"}, "[2]": {"assay": "Plasma and urine pharmacokinetics after single oral dose under fasting conditions", "assay_type": "in vivo, human", "conditions": "for AUC(0-inf) / C max / CL/F (oral clearance) / T 1/2 / Vz/F (volume of distribution) / T max: plasma", "procedure": "Healthy Japanese and non-Japanese subjects between 18 and 55 years of age were recruited to participate in the study. Criteria for exclusion included prior treatment with any investigational compound within 30 days of the first TAK-063 dose, a positive test for drugs of abuse or nicotine, and an increased risk for suicide. Subjects were randomized into 1 of 6 dose cohorts (3, 10, 30, 100, 300, and 1000 mg), with each cohort containing 11 TAK-063 subjects (five Japanese, six non-Japanese) and three placebo subjects (one Japanese, two non-Japanese) receiving a single dose under fasting conditions. Following a washout period of 7 days, subjects in cohort 3 (100 mg) received the same dose (100 mg) but under fed conditions. Serial plasma and urine samples were collected from all subjects prior to dosing and at specific time points or intervals up to 96 h postdose. Pharmacokinetic samples were processed immediately and frozen at −20 °C as duplicate sets. Plasma concentrations of TAK-063 and its metabolite M-I were subsequently measured by validated liquid chromatography-tandem mass spectrometry with a validated range of 0.5 to 1000 ng/mL for both analytes. The PK parameters analyzed for TAK-063 and its metabolite M-I in plasma and urine included area under the plasma concentration-time curve from time 0 to infinity (AUC (0-inf)), maximum observed plasma concentration (C max), time to reach C max (T max), terminal elimination half-life (T 1/2), oral clearance (CL/F), volume of distribution (Vz/F), and renal clearance (CLr). Metabolite-to-parent ratios were estimated from C max and AUC (0-inf) data. All statistical analyses were generated using SAS Version 9.2 (SAS, Cary, NC, USA). The PK parameters were derived using non-compartmental methods with WinNonlin Enterprise Version 6.3 (Pharsight Corp., Mountain View, CA, USA). Frequency or descriptive statistics were used for summary of data. Where indicated, percent coefficient of variation was included in the summary of continuous data. All statistical tests were 2-tailed at α = 0.05 level for significance unless otherwise stated. A power model was used to evaluate dose proportionality by race for fasted subjects; in the event of no observed race effect, dose proportionality was assessed for all subjects. To evaluate the food effect, a paired t test was performed on T max and natural log-transformed C max, and AUCs. An ANCOVA model with baseline scores and race as covariates was used to assess the effects of TAK-063 on CNSVS domain scores."}, "[3]": {"conditions": "Japanese subjects, TAK-063 3 mg (n = 5), arithmetic mean"}, "[4]": {"conditions": "Japanese subjects, TAK-063 10 mg (n = 5), arithmetic mean"}, "[5]": {"conditions": "Japanese subjects, TAK-063 30 mg (n = 5), arithmetic mean"}, "[6]": {"conditions": "Japanese subjects, TAK-063 100 mg (n = 4), arithmetic mean"}, "[7]": {"conditions": "Japanese subjects, TAK-063 100 mg (n = 5; TAK-063 n = 4), arithmetic mean"}, "[8]": {"conditions": "Japanese subjects, TAK-063 300 mg (n = 4), arithmetic mean"}, "[9]": {"conditions": "Japanese subjects, TAK-063 300 mg (n = 5; TAK-063 n = 4), arithmetic mean"}, "[10]": {"conditions": "Japanese subjects, TAK-063 1000 mg (n = 5), arithmetic mean"}, "[11]": {"conditions": "fasting, all subjects, TAK-063 3 mg (n = 11), arithmetic mean (% CV)"}, "[12]": {"conditions": "fasting, all subjects, TAK-063 3 mg (n = 11; M-I n = 10), arithmetic mean (% CV)"}, "[13]": {"conditions": "fasting, all subjects, TAK-063 10 mg (n = 11), arithmetic mean (% CV)"}, "[14]": {"conditions": "fasting, all subjects, TAK-063 30 mg (n = 11), arithmetic mean (% CV)"}, "[15]": {"conditions": "fasting, all subjects, TAK-063 100 mg (n = 9), arithmetic mean (% CV)"}}, "note": "Marks after values point to notes of the source that are not given here.", "data": [{"smiles": "COc1cn(-c2ccc(-n3cccn3)cc2F)nc(-c2ccnn2-c2ccccc2)c1=O", "note": "[TAK-063]", "values": [{"measurement": "Median T max", "setting": "[1]; fed (standard meal)", "result": 6, "unit": "h"}, {"measurement": "Oral bioavailability, fed relative to fasting", "setting": "[1]; standard meal", "result": "approximately 2 fold"}, {"measurement": "Increase in AUC over the dose range", "setting": "[2]; 333-fold increase in dose (3 to 1000 mg), fasting", "result": "up to 26 fold"}, {"measurement": "AUC(0-inf)", "setting": "[2]; [3]", "result": 250.3, "unit": "ng·h/mL"}, {"measurement": "C max", "setting": "[2]; [3]", "result": 16.1, "unit": "ng/mL"}, {"measurement": "CL/F (oral clearance)", "setting": "[2]; [3]", "result": 12.5, "unit": "L/h"}, {"measurement": "T 1/2", "setting": "[2]; [3]", "result": 15.9, "unit": "h"}, {"measurement": "Vz/F (volume of distribution)", "setting": "[2]; [3]", "result": 269.5, "unit": "L"}, {"measurement": "T max", "setting": "[2]; Japanese subjects, TAK-063 3 mg (n = 5), median", "result": 4.0, "unit": "h"}, {"measurement": "AUC(0-inf)", "setting": "[2]; [4]", "result": 659.2, "unit": "ng·h/mL"}, {"measurement": "C max", "setting": "[2]; [4]", "result": 30.2, "unit": "ng/mL"}, {"measurement": "CL/F (oral clearance)", "setting": "[2]; [4]", "result": 15.8, "unit": "L/h"}, {"measurement": "T 1/2", "setting": "[2]; [4]", "result": 18.2, "unit": "h"}, {"measurement": "Vz/F (volume of distribution)", "setting": "[2]; [4]", "result": 412.2, "unit": "L"}, {"measurement": "T max", "setting": "[2]; Japanese subjects, TAK-063 10 mg (n = 5), median", "result": 4.0, "unit": "h"}, {"measurement": "AUC(0-inf)", "setting": "[2]; [5]", "result": 1027.3, "unit": "ng·h/mL"}, {"measurement": "C max", "setting": "[2]; [5]", "result": 55.7, "unit": "ng/mL"}, {"measurement": "CL/F (oral clearance)", "setting": "[2]; [5]", "result": 35.2, "unit": "L/h"}, {"measurement": "T 1/2", "setting": "[2]; [5]", "result": 17.8, "unit": "h"}, {"measurement": "Vz/F (volume of distribution)", "setting": "[2]; [5]", "result": 889.4, "unit": "L"}, {"measurement": "T max", "setting": "[2]; Japanese subjects, TAK-063 30 mg (n = 5), median", "result": 4.0, "unit": "h"}, {"measurement": "AUC(0-inf)", "setting": "[2]; [6]", "result": 1459.1, "unit": "ng·h/mL"}, {"measurement": "T 1/2", "setting": "[2]; [6]", "result": 20.7, "unit": "h"}, {"measurement": "C max", "setting": "[2]; Japanese subjects, TAK-063 100 mg (n = 5), arithmetic mean", "result": 89.9, "unit": "ng/mL"}, {"measurement": "T max", "setting": "[2]; Japanese subjects, TAK-063 100 mg (n = 5), median", "result": 3.0, "unit": "h"}, {"measurement": "CL/F (oral clearance)", "setting": "[2]; [7]", "result": 75.8, "unit": "L/h"}, {"measurement": "Vz/F (volume of distribution)", "setting": "[2]; [7]", "result": 2288.5, "unit": "L"}, {"measurement": "AUC(0-inf)", "setting": "[2]; [8]", "result": 1636.0, "unit": "ng·h/mL"}, {"measurement": "T 1/2", "setting": "[2]; [8]", "result": 20.3, "unit": "h"}, {"measurement": "C max", "setting": "[2]; Japanese subjects, TAK-063 300 mg (n = 5), arithmetic mean", "result": 98.2, "unit": "ng/mL"}, {"measurement": "T max", "setting": "[2]; Japanese subjects, TAK-063 300 mg (n = 5), median", "result": 4.0, "unit": "h"}, {"measurement": "CL/F (oral clearance)", "setting": "[2]; [9]", "result": 212.8, "unit": "L/h"}, {"measurement": "Vz/F (volume of distribution)", "setting": "[2]; [9]", "result": 6409.8, "unit": "L"}, {"measurement": "AUC(0-inf)", "setting": "[2]; [10]", "result": 4931.4, "unit": "ng·h/mL"}, {"measurement": "C max", "setting": "[2]; [10]", "result": 264.0, "unit": "ng/mL"}, {"measurement": "CL/F (oral clearance)", "setting": "[2]; [10]", "result": 233.8, "unit": "L/h"}, {"measurement": "T 1/2", "setting": "[2]; [10]", "result": 11.7, "unit": "h"}, {"measurement": "Vz/F (volume of distribution)", "setting": "[2]; [10]", "result": 3953.4, "unit": "L"}, {"measurement": "T max", "setting": "[2]; Japanese subjects, TAK-063 1000 mg (n = 5), median", "result": 4.0, "unit": "h"}, {"measurement": "C max", "setting": "[2]; [11]", "result": "11.8 (51) ng/mL"}, {"measurement": "CL/F (oral clearance)", "setting": "[2]; [11]", "result": "14.0 (48) L/h"}, {"measurement": "Vz/F (volume of distribution)", "setting": "[2]; [11]", "result": "407.0 (64) L"}, {"measurement": "T max", "setting": "[2]; fasting, all subjects, TAK-063 3 mg (n = 11), median (minimum, maximum)", "result": "4.0 (2.0, 24.0) h"}, {"measurement": "AUC(0-inf)", "setting": "[2]; [12]", "result": "244.9 (32) ng·h/mL"}, {"measurement": "T 1/2", "setting": "[2]; [12]", "result": "20.4 (48) h"}, {"measurement": "AUC(0-inf)", "setting": "[2]; [13]", "result": "576.7 (29) ng·h/mL"}, {"measurement": "C max", "setting": "[2]; [13]", "result": "26.7 (34) ng/mL"}, {"measurement": "CL/F (oral clearance)", "setting": "[2]; [13]", "result": "18.7 (30) L/h"}, {"measurement": "T 1/2", "setting": "[2]; [13]", "result": "19.9 (18) h"}, {"measurement": "Vz/F (volume of distribution)", "setting": "[2]; [13]", "result": "529.5 (29) L"}, {"measurement": "T max", "setting": "[2]; fasting, all subjects, TAK-063 10 mg (n = 11), median (minimum, maximum)", "result": "4.0 (2.0, 16.0) h"}, {"measurement": "AUC(0-inf)", "setting": "[2]; [14]", "result": "1003.6 (42) ng·h/mL"}, {"measurement": "C max", "setting": "[2]; [14]", "result": "46.9 (61) ng/mL"}, {"measurement": "CL/F (oral clearance)", "setting": "[2]; [14]", "result": "33.1 (27) L/h"}, {"measurement": "T 1/2", "setting": "[2]; [14]", "result": "20.4 (30) h"}, {"measurement": "Vz/F (volume of distribution)", "setting": "[2]; [14]", "result": "954.8 (33) L"}, {"measurement": "T max", "setting": "[2]; fasting, all subjects, TAK-063 30 mg (n = 11), median (minimum, maximum)", "result": "4.0 (3.0, 16.0) h"}, {"measurement": "AUC(0-inf)", "setting": "[2]; [15]", "result": "1406.8 (38)^c ng·h/mL"}, {"measurement": "T 1/2", "setting": "[2]; [15]", "result": "24.6 (37)^c h"}, {"measurement": "C max", "setting": "[2]; fasting, all subjects, TAK-063 100 mg (n = 11), arithmetic mean (% CV)", "result": "80.5 (48) ng/mL"}, {"measurement": "T max", "setting": "[2]; fasting, all subjects, TAK-063 100 mg (n = 11), median (minimum, maximum)", "result": "3.0 (1.5, 6.0) h"}, {"measurement": "CL/F (oral clearance)", "setting": "[2]; fasting, all subjects, TAK-063 100 mg (n = 11; TAK-063 n = 9), arithmetic mean (% CV)", "result": "80.3 (35)^c L/h"}]}]}
